Experiment [1] addresses T1, Acetylcholinesterase from Electrophorus electricus (Electrophorus electricus, UniProt O42275).
T1 construct: purchased Sigma-Aldrich, Hamburg, Germany
Put plainly: biochemical. Type of experiment: biochemical. Particulars: for inhibition at 1000 µM: 1 mM solution of the tested compound, read-out: Activity [%] (inhibition percentage of AChE); for IC50: mean ± SD of three experiments, read-out: AChE IC50.
Procedure: (§1) AChE and BChE inhibitory activity was measured using the microplate assay described by Ellman et al. [68] with the modifications added by López et al. [36]. The compounds were tested at concentrations between 10^−3 and 10^−8 M. First, all compounds were dissolved in 1% DMSO in a concentration of 1 mg/mL.
(§2) Incubation of the plates was performed at room temperature for 30 min. Then, 100 μL of substrate solution were added to start the enzymatic reaction. […] Enzyme activity was calculated as an inhibition percentage compared to an assay including buffer instead of an inhibitor. […] All data were analyzed with the software package Prism 3 (Graph Pad Inc., San Diego, CA, USA).

Experiment [2] has as its target T2, butyrylcholinesterase from equine serum (Equus caballus, UniProt P81908).
T2 construct: butyrylcholinesterase from equine serum; purchased Sigma-Aldrich, Hamburg, Germany; host or cells: equine serum
Kind of experiment: biochemical. Particulars: for inhibition at 1000 µM: read-out: Activity [%] (inhibition percentage of BChE).
Procedure: as §1, §2

The subject of experiment [3] is Neuro-2a cells. Put plainly: MTT cytotoxicity, Neuro-2a. Particulars: read-out: Neuro-2a IC50. Type of experiment: cell-based, murine.
In experiment [4] the test system is SH-SY5Y cells. Kind of experiment: MTT cytotoxicity, SH-SY5Y. Type of experiment: cell-based, human. Particulars: read-out: SH-SY5Y IC50.
The test system of experiment [5] is CCL-1 cells. Put plainly: MTT cytotoxicity, CCL-1 normal fibroblasts. Type of experiment: cell-based, murine. Conditions: read-out: CCL-1 IC50.
Experiment [6] in a line: ABTS radical scavenging assay. Particulars: 734 nm after 5 min.
Procedure: These compounds were also tested for their antioxidant activities by using the ABTS [2,2′-azinobis (3-ethylbenzothiazoline-6-sulfonic acid)] cation radical decolorization method (Table 4). The BHT [41] was used for comparison. The ABTS cation radical is produced by oxidation of the ABTS molecule with strong oxidizing agents, such as potassium persulfate in water.
For ABTS assay, the procedure followed the method of Arnao et al. [71] with some modifications. […] The working solution was then prepared by mixing the two stock solutions in equal quantities and allowing them to react for 14 h at room temperature in the dark. […] A fresh ABTS solution was prepared for each assay. […] The ABTS scavenging capacity of the compound was calculated as follows:ABTS radical scavenging activity (%) = ((Abscontr. − Abssample)/Abscontr.) ×100, where Abscontr. is the absorbance of DPPH radical with 300 μL MeOH, Abssample is the absorbance of DPPH radical solution mixed with the sample. […] BHT was used as positive control.
Experiment [7] can be described thus: Ferric reducing antioxidant power (FRAP). Particulars: 150 μL of 5 mM compound, 30 min, 593 nm, Trolox equivalent.
The nature of experiment [8]: Lipid peroxidation in linoleic acid system, FTC method. Particulars: 10 mM compound, 500 nm.
Procedure: The antioxidant activity of studied compounds against lipid peroxidation was measured through ammonium thiocyanate assay as described by Takao et al. [66] with some modifications. […] A 10 μL aliquot of the reaction solution was then added to 200 μL of 70% (v/v) ethanol and 10 μL of 30% (w/v) ammonium thiocyanate. […] Aliquots were assayed every 24 h until the day after the absorbance of the control solution (without compound) reached maximum value. BHT (10 mM) was used as positive control.
The mark [9] stands for this setting: 1 mM solution of the tested compound.
Where [10] appears, read: mean ± SD of three experiments, read-out: BChE IC50.
Where [11] appears, read: Mus musculus, N2a, MTT, 72 h exposure.
[12] abbreviates: Homo sapiens, SH-SY5Y, MTT, 72 h exposure.
Setting [13] is: Mus musculus, Fibroblast, MTT, 72 h exposure.

Read-outs that look alike come from different tables or passages of the source. A value given as a limit tells only on which side of the number the result lay.

T2 sequence (P81908 whole entry): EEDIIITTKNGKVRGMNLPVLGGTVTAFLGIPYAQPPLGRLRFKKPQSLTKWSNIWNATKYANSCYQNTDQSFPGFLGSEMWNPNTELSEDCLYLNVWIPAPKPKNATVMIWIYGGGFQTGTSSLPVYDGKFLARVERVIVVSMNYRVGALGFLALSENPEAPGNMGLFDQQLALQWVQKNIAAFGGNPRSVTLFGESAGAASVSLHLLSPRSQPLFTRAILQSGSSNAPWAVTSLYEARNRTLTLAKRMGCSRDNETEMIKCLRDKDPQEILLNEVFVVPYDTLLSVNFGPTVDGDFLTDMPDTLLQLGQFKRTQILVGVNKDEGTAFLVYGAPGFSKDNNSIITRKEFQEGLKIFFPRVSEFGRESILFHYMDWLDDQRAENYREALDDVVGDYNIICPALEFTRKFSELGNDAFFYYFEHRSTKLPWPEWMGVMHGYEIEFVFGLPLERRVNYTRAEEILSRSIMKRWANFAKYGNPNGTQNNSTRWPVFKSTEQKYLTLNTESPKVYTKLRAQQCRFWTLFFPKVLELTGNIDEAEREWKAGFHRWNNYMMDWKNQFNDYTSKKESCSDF
T1 sequence (O42275 24-633): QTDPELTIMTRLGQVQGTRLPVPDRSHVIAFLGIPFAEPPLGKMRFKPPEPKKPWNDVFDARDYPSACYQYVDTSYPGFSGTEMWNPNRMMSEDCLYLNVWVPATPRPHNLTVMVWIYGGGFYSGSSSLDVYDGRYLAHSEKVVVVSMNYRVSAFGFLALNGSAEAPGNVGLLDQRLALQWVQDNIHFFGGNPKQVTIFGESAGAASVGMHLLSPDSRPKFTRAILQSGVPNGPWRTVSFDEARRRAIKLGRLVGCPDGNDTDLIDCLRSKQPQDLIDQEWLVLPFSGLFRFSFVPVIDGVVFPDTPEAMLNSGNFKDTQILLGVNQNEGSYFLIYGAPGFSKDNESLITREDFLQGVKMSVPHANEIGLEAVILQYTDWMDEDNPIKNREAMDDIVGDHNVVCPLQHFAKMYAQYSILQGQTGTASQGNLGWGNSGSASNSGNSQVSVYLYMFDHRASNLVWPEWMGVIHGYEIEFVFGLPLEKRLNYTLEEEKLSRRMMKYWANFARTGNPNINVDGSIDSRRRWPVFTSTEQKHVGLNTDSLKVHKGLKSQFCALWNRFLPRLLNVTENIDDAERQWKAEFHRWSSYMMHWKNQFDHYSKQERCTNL

Usually inhibition stands for the drop in the measured response relative to a control, in per cent. As a reminder, the IC50 is the concentration needed to halve the response being measured. Take `O=C(N/N=C/c1ccc(O)cc1)C1CCN(Cc2ccccc2)C1` (centres unmarked) [3e, 1-benzyl-N’-[(E)-(4-hydroxyphenyl)methylidene]pyrrolidine-3-carbohydrazide]: in experiment [1], the “AChE inhibitory activity in words” value is “practically inactive”. Also, the inhibition at 1000 µM in experiment [1] stood at 3.84%; in experiment [2] (setting [9]) it was 12.4%. For the same compound, the IC50 in experiment [1] was more than 1000 µM; in experiment [2] (setting [10]) it was more than 1000 µM; in experiment [3] (setting [11]), more than 300 µM; in experiment [4] (setting [12]) it was 170 ± 10.6 µM; in experiment [5] (setting [13]), more than 300 µM.

As for `O=C(N/N=C/c1ccc(O)cc1O)C1CCN(Cc2ccccc2)C1` (centres unmarked) [3f, 1-benzyl-N’-[(E)-(2,4-dihydroxyphenyl)methylidene]pyrrolidine-3-carbohydrazide], the inhibition at 1000 µM amounted to 64.1% in experiment [1] and 57.2% in experiment [2] (setting [9]). For the same compound, the “SI AChE” value in experiment [1] (IC50(BChE)/IC50(AChE)) was found to be 1.28. Further, the half-inhibitory concentration (IC50) in experiment [1] turned out to be 550 ± 37.1 µM; in experiment [2] (setting [10]), 709 ± 41.3 µM; in experiment [3] (setting [11]), 12.5 ± 2.4 µM; in experiment [4] (setting [12]) it was 35.8 ± 5.5 µM; in experiment [5] (setting [13]) it was 150 ± 11.2 µM.

`O=C(N/N=C/c1ccc(O)c(O)c1)C1CCN(Cc2ccccc2)C1` (centres unmarked) [3g, 1-benzyl-N’-[(E)-(3,4-dihydroxyphenyl)methylidene]pyrrolidine-3-carbohydrazide]: the “AChE inhibitory activity in words” value in experiment [1] is “practically inactive”. Also, the inhibition at 1000 µM in experiment [1] was found to be 2.74%; in experiment [2] (setting [9]) it was 28.2%. In addition, the concentration for half-maximal inhibition (IC50) is more than 1000 µM in experiment [1]; more than 1000 µM in experiment [2] (setting [10]); 110 ± 9.1 µM in experiment [3] (setting [11]); more than 300 µM in experiment [4] (setting [12]); more than 300 µM in experiment [5] (setting [13]).

Consider `O=C(N/N=C/c1c(O)cc(O)cc1O)C1CCN(Cc2ccccc2)C1` (centres unmarked) [3h, 1-benzyl-N’-[(E)-(2,4,6-trihydroxyphenyl)methylidene]pyrrolidine-3-carbohydrazide], for which the inhibition at 1000 µM in experiment [1] turned out to be 73.3%; in experiment [2] (setting [9]), 76.5%. Moreover, the IC50 in experiment [1] was 351 ± 17.9 µM; in experiment [2] (setting [10]), 179 ± 11.5 µM; in experiment [3] (setting [11]), more than 300 µM; in experiment [4] (setting [12]) it was more than 300 µM; in experiment [5] (setting [13]), more than 300 µM. Also, the “SI BChE” value in experiment [2] (IC50(AChE)/IC50(BChE)) is recorded as 1.96.

`COc1ccc2[nH]cc(/C=N/NC(=O)CNC(=O)OC(C)(C)C)c2c1` [3j]: the IC50 in experiment [1] is more than 1000 µM; in experiment [2] (setting [10]), more than 1000 µM; in experiment [3] (setting [11]) it was more than 300 µM; in experiment [4] (setting [12]) it was 150 ± 12.3 µM; in experiment [5] (setting [13]), more than 300 µM. Moreover, the inhibition at 1000 µM in experiment [2] (setting [9]) stood at 17.4%.

For the compound `COc1ccc2c(c1)c(/C=N/NC(=O)CNC(=O)OC(C)(C)C)cn2C` [3k], the inhibition at 1000 µM in experiment [1] was found to be 3.26%; in experiment [2] (setting [9]), 30.3%. In addition, the IC50 in experiment [1] was more than 1000 µM; in experiment [2] (setting [10]), more than 1000 µM; in experiment [3] (setting [11]) it was more than 300 µM; in experiment [4] (setting [12]), 131 ± 11.8 µM; in experiment [5] (setting [13]), more than 300 µM.

As to `Cn1cc(/C=N/NC(=O)CNC(=O)OC(C)(C)C)c2ccccc21` [3l, tert-butyl(2-{(2E)-2-[(1-methyl-1H-indol-3-yl)methylidene]hydrazinyl}-2-oxoethyl)carbamate], the half-inhibitory concentration (IC50) in experiment [1] was more than 1000 µM; in experiment [2] (setting [10]) it was more than 1000 µM; in experiment [3] (setting [11]) it was more than 300 µM; in experiment [4] (setting [12]) it was 107 ± 8.9 µM; in experiment [5] (setting [13]) it was more than 300 µM. Also, in experiment [2] (setting [9]), the inhibition at 1000 µM turned out to be 39.1%.

Turning to `COc1ccc(/C=N/NC(=O)c2c[nH]c3ccccc23)cc1OC` [3o, N’-[(E)-(3,4-dimethoxyphenyl)methylidene]-1H-indole-3-carbohydrazide], the half-inhibitory concentration (IC50) in experiment [1] is more than 1000 µM; in experiment [2] (setting [10]), more than 1000 µM; in experiment [3] (setting [11]) it was 126 ± 10.7 µM; in experiment [4] (setting [12]) it was 70 ± 7.2 µM; in experiment [5] (setting [13]), more than 300 µM.

For the compound `COc1ccc(/C=N/NC(=O)Cc2c[nH]c3ccccc23)cc1OC` [3p, N’-[(E)-(3,4-dimethoxyphenyl)methylidene]-2-(1H-indol-3-yl)acetohydrazide], the IC50 in experiment [1] was more than 1000 µM; in experiment [2] (setting [10]) it was more than 1000 µM; in experiment [3] (setting [11]), 116 ± 12.8 µM; in experiment [4] (setting [12]), 87.4 ± 7.7 µM; in experiment [5] (setting [13]), more than 300 µM. Further, the inhibition at 1000 µM in experiment [2] (setting [9]) was found to be 24%.

As to `COc1cc(/C=N/NC(=O)c2ccc(O)cc2O)ccc1O` [3r, 2,4-dihydroxy-N’-[(E)-(4-hydroxy-3-methoxyphenyl)methylidene]benzohydrazide], the IC50 in experiment [1] is more than 1000 µM. The inhibition at 1000 µM in experiment [2] (setting [9]) amounted to 16.9%. Besides, the 50% inhibitory concentration (IC50) in experiment [2] (setting [10]) is more than 1000 µM. Besides, the IC50 in experiment [3] (setting [11]) was more than 300 µM. Further, in experiment [4] (setting [12]), the IC50 was found to be 156 ± 11.1 µM. In addition, the IC50 in experiment [5] (setting [13]) is more than 300 µM. Moreover, in experiment [6], the “ABTS Activity” value is on record as 91.41 ± 0.47% and half-maximal inhibition (IC50) was put at 2500 ± 230 µM. Further, the FRAP in experiment [7] is 14.30 ± 0.56 μMTE. In experiment [8], the “Absorbance Day 1” value was 0.80 ± 0.04, the “Absorbance Day 2” value stood at 0.81 ± 0.01, the “Absorbance Day 3” value was 0.82 ± 0.02 and the “Absorbance Day 4” value is 0.87 ± 0.09. Also, in experiment [8], the “Absorbance Day 5” value turned out to be 0.86 ± 0.09.

Regarding `COc1ccc(S(=O)(=O)N/N=C/c2cn(C)c3ccc(OC)cc23)cc1` [5b, 4-methoxy-N’-[(E)-(5-methoxy-1-methyl-1H-indol-3-yl)methylidene]benzenesulfonohydrazide], the IC50 in experiment [1] is more than 1000 µM; in experiment [2] (setting [10]), more than 1000 µM; in experiment [3] (setting [11]), 30.5 ± 3.2 µM; in experiment [4] (setting [12]), 70.4 ± 4.9 µM; in experiment [5] (setting [13]), 38.1 ± 3.5 µM.

Turning to `COc1ccc(S(=O)(=O)N/N=C/c2c[nH]c3ccc(OC)cc23)cc1` [5c, 4-methoxy-N’-[(E)-(5-methoxy-1H-indol-3-yl)methylidene]benzenesulfonohydrazide], the IC50 in experiment [1] was more than 1000 µM; in experiment [2] (setting [10]), more than 1000 µM; in experiment [3] (setting [11]), 7.5 ± 2.4 µM; in experiment [4] (setting [12]) it was 48.3 ± 5.2 µM; in experiment [5] (setting [13]) it was 25.7 ± 2.9 µM. Moreover, in experiment [2] (setting [9]), the inhibition at 1000 µM came to 18.2%.

Consider `O=S(=O)(N/N=C/c1cn(Cc2ccccc2)c2ccccc12)c1ccccc1` [5d, N’-[(E)-(1-benzyl-1H-indol-3-yl)methylidene]benzenesulfonohydrazide], for which, in experiment [1], the inhibition at 1000 µM turned out to be 41.7%. Also, the half-maximal inhibitory concentration (IC50) in experiment [1] was more than 1000 µM; in experiment [2] (setting [10]) it was more than 1000 µM; in experiment [3] (setting [11]), 117 ± 11.5 µM; in experiment [4] (setting [12]) it was 99.5 ± 7.8 µM; in experiment [5] (setting [13]), 140 ± 8.4 µM.

For `COc1ccc(S(=O)(=O)N/N=C/c2cn(C)c3ccccc23)cc1` [5e, 4-methoxy-N’-[(E)-(1-methyl-1H-indol-3-yl)methylidene]benzenesulfonohydrazide], the concentration for half-maximal inhibition (IC50) is more than 1000 µM in experiment [1]; more than 1000 µM in experiment [2] (setting [10]); 19.9 ± 1.7 µM in experiment [3] (setting [11]); 83.3 ± 4.9 µM in experiment [4] (setting [12]); 180 ± 9.6 µM in experiment [5] (setting [13]).

With `O=S(=O)(N/N=C/c1ccc(Cl)cc1)c1ccccc1` [5l, N’-[(E)-(4-chlorophenyl)methylidene]benzenesulfonohydrazide], the IC50 in experiment [1] was more than 1000 µM; in experiment [2] (setting [10]), more than 1000 µM; in experiment [3] (setting [11]), 117 ± 11.5 µM; in experiment [4] (setting [12]), 99.5 ± 7.8 µM; in experiment [5] (setting [13]), 131 ± 11.4 µM.

For the compound `COc1cc2c(cc1OC)C(=O)C(CC1CCN(Cc3ccccc3)CC1)C2` (centres unmarked) [Donepezil, 1-Benzyl-4-[(5,6-dimethoxy-1-indanon-2-yl)methyl]piperidine, reference compound], the inhibition at 1000 µM in experiment [2] turned out to be 69.1%.

Turning to `COc1ccc2c3c1O[C@H]1C[C@@H](O)C=C[C@@]31CCN(C)C2` [Galanthamine, reference compound], the inhibition at 1000 µM in experiment [2] amounted to 85.8%. Further, the IC50 in experiment [3] (Mus musculus, N2a, 72 h) is more than 300 µM; in experiment [4] (Homo sapiens, SH-SY5Y, 72 h) it was more than 300 µM; in experiment [5] (Mus musculus, Fibroblast, 72 h) it was more than 300 µM.

Take `COc1ccc2[nH]cc(CCNC(C)=O)c2c1` [Melatonin, reference compound]: in experiment [1], the inhibition at 1000 µM was found to be 1.24% and the IC50 was more than 1000 µM. Further, in experiment [2], the 50% inhibitory concentration (IC50) is more than 1000 µM and the inhibition at 1000 µM was 4.21 ± 0.88%. In addition, in experiment [8], the “Absorbance Day 1” value came out at 0.75 ± 0.07, the “Absorbance Day 2” value came to 0.80 ± 0.09, the “Absorbance Day 3” value came out at 0.89 ± 0.05 and the “Absorbance Day 4” value stood at 0.89 ± 0.02. Besides, the “Absorbance Day 5” value in experiment [8] was found to be 0.94 ± 0.01.

On to “N’-[(E)-(5-methoxy-1-methyl-1H-indol-3-yl)methylidene]benzenesulfonohydrazide [5f]”, for which the 50% inhibitory concentration (IC50) in experiment [1] was more than 1000 µM; in experiment [2] (setting [10]), more than 1000 µM; in experiment [3] (MTT, 72 h exposure), 135 ± 10.9 µM; in experiment [4] (MTT, 72 h exposure), 132 ± 10.3 µM; in experiment [5] (MTT, 72 h exposure) it was 167 ± 11.8 µM.

The values are drawn from article PMC10534827 (Pharmaceuticals, 2023).
